Reference: patent US10551379B2, “Methods and compositions for improving detection and/or capture of a target entity” (PRESIDENT AND FELLOWS OF HARVARD COLLEGE, priority 2013, dated 2020)

Tests used:
FcMBL [1] = molecular target: T1, FcMBL (Homo sapiens, UniProt P11226); assay: Binding affinity (Kd) of medium affinity ligands for FcMBL; conditions: read-out: Kd (medium affinity ligand of FcMBL)
Excerpt: (§1) Without wishing to be bound by theory, this reduced background can be related to the prevention of FcMBL low affinity binding to erythrocytes (or other endogenous components in blood) by the medium affinity sugar that in turn can be displaced by the higher affinity targets such as mannan, lipopolysaccharides (LPS), and/or a microbe or fragment thereof.

FcMBL [2] = molecular target: T1, FcMBL; assay: FcMBL ELISA capture in blood: background and haemocyte binding (FIGS. 3A-3B); conditions: for background of the FcMBL ELISA: ligand added to FcMBL prior to the capture of mannan in the presence of blood
Protocol: FIGS. 3A-3B are data graphs showing effects of adding a blocking agent (e.g., ˜10 mM glucose) on binding of a target entity (e.g., LPS) or an interfering agent (e.g., haemocytes) to a target-binding agent (e.g., FcMBL beads) in donor blood.
as §1

T1 sequence (P11226 with tags, fused parts or gaps limits assumed): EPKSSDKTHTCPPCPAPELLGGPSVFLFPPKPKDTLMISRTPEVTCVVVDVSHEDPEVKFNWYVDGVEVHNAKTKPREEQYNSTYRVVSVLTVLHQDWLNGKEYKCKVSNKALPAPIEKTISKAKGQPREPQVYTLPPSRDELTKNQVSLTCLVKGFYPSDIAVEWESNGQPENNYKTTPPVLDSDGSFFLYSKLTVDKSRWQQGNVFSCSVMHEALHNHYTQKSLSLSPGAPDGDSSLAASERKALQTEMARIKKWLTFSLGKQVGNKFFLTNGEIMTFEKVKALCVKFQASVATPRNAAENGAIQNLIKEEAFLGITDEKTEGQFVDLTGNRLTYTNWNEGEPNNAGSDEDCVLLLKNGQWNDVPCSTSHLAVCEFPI

Question: Which results are given for OC[C@H]1O[C@H](O[C@H]2[C@H](O)[C@@H](O)C(O)O[C@@H]2CO)[C@H](O)[C@@H](O)[C@@H]1O (mixture of isomers) [maltose]?
Answer: Kd (FcMBL [1]): 15 mM; background of the FcMBL ELISA (FcMBL [2]): decreases the background

Question: How did the Kd (FcMBL [1]) turn out when CC(=O)N[C@H]1C(O)O[C@H](CO)[C@@H](O)[C@@H]1O[C@H](C)C(=O)O (some centres unmarked) [N-acetyl Muramic acid] was run?
Answer: 17 mM

Question: And the “background of the FcMBL ELISA” value (FcMBL [2])?
Answer: decreases the background

Question: Which “background by binding of erythrocytes or other endogenous blood components to FcMBL” value (FcMBL [2]; addition of a small amount of mannan) does the source give for mannan here?
Answer: decrease the background
